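Protocol summary: plate cells (96-well), add compound at 5 concentrations, incubate 48 h, interpolate endpoints linearly. GI50 marks 50% less growth. The concentration for full growth arrest is given as TGI.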
Tests used:
Test in all cases: NCI-60 cell line screen, 48 h; in the data active = GI50 below about 0.43 µM; inactive = the rest
[1] = system: HCC-2998 colon
[2] = system: RPMI-8226 leukemia
[3] = system: NCI-H522 lung
[4] = system: SF-268 CNS
[5] = system: HS 578T breast
[6] = system: HOP-62 NSCLC
[7] = system: SF-295 CNS
[8] = system: SW-620 colon
[9] = system: SK-MEL-2 melanoma
[10] = system: RXF 393 renal
[11] = system: SN12C renal
[12] = system: SF-539 CNS
[13] = system: EKVX NSCLC
[14] = system: OVCAR-3 ovarian
[15] = system: MCF7 breast
[16] = system: BT-549 breast
[17] = system: A549 NSCLC
[18] = system: IGROV1 ovarian
[19] = system: NCI-H460 lung
[20] = system: MDA-MB-435
[21] = system: SNB-19 CNS
[22] = system: LOX IMVI melanoma
[23] = system: OVCAR-8 ovarian
[24] = system: SR leukemia
[25] = system: MALME-3M melanoma
[26] = system: SK-MEL-5 melanoma
[27] = system: TK-10 renal
[28] = system: PC-3 prostate
[29] = system: 786-0 renal
[30] = system: ACHN renal
[31] = system: CCRF-CEM leukemia
[32] = system: UACC-257 melanoma
[33] = system: NCI/ADR-RES ovarian
[34] = system: SK-OV-3 ovarian
[35] = system: CAKI-1 renal
[36] = system: UO-31 renal
[37] = system: NCI-H23 lung
[38] = system: U251 CNS
[39] = system: SNB-75 CNS
[40] = system: COLO 205 colon
[41] = system: K-562 leukemia
[42] = system: UACC-62 melanoma
[43] = system: HCT-15 colon
[44] = system: HOP-92 NSCLC
[45] = system: NCI-H226 lung
[46] = system: DU-145 prostate
[47] = system: KM12 colon
[48] = system: MDA-MB-231 breast
[49] = system: OVCAR-5 ovarian
[50] = system: HL-60(TB) leukemia
[51] = system: M14 melanoma
[52] = system: HCT-116 colon
[53] = system: MOLT-4 leukemia
[54] = system: A498 renal
[55] = system: HT29 colon
[56] = system: T-47D breast
[57] = system: SK-MEL-28 melanoma

C#CCn1cnc2cnc(Nc3cccc(NC(=O)CCl)c3)nc21
55.3 µM: TGI [36]
22.4 µM: TGI [3]
23.3 µM: TGI [30]
41.3 µM: TGI [50]
22.3 µM: TGI [18]
19.5 µM: TGI [26]
inactive: GI50 [1] 46.8 µM | GI50 [2] 19.2 µM | GI50 [3] 10.3 µM | GI50 [4] 25.8 µM | GI50 [5] 17.3 µM | GI50 [6] 54.7 µM | GI50 [7] 47.1 µM | GI50 [8] 19.1 µM | GI50 [9] 43 µM | GI50 [10] 10.1 µM | GI50 [11] 19.4 µM | GI50 [12] 16.9 µM | GI50 [13] > 62.5 µM | GI50 [14] 15.2 µM | GI50 [15] 15.3 µM | GI50 [16] 13.3 µM | GI50 [17] 20 µM | GI50 [18] 6.99 µM | GI50 [19] 22.7 µM | GI50 [20] 28.5 µM | GI50 [21] 36.5 µM | GI50 [22] 16.3 µM | GI50 [23] 26.3 µM | GI50 [24] 56.8 µM | GI50 [25] 23.2 µM | GI50 [26] 10.3 µM | GI50 [27] 22.9 µM | GI50 [28] 27.7 µM | GI50 [29] 23.3 µM | GI50 [30] 10.9 µM | GI50 [31] 15.3 µM | GI50 [32] 51 µM | GI50 [33] 26.4 µM | GI50 [34] 23.6 µM | GI50 [35] 22.9 µM | GI50 [36] 10.9 µM | GI50 [37] 38.8 µM | GI50 [38] 19.6 µM | GI50 [39] 8.18 µM | GI50 [40] 15.2 µM | GI50 [41] 23.7 µM | GI50 [42] 22.6 µM | GI50 [43] 29.3 µM | GI50 [44] > 62.5 µM | GI50 [45] 49.9 µM | GI50 [46] 29.8 µM | GI50 [47] 21.1 µM | GI50 [48] 20.8 µM | GI50 [49] 29.8 µM | GI50 [50] 15.7 µM | GI50 [51] 22.5 µM | GI50 [52] 21.3 µM | GI50 [53] 21.5 µM | GI50 [54] 21 µM | GI50 [55] 17.3 µM | GI50 [56] > 62.5 µM | GI50 [57] 25.3 µM
45 µM: TGI [40]
> 62.5 µM: TGI [1] | TGI [2] | TGI [4] | TGI [5] | TGI [6] | TGI [7] | TGI [8] | TGI [9] | TGI [11] | TGI [12] | TGI [13] | TGI [14] | TGI [15] | TGI [16] | TGI [17] | TGI [19] | TGI [20] | TGI [21] | TGI [22] | TGI [23] | TGI [24] | TGI [25] | TGI [27] | TGI [28] | TGI [29] | TGI [31] | TGI [32] | TGI [33] | TGI [34] | TGI [35] | TGI [37] | TGI [38] | TGI [39] | TGI [41] | TGI [42] | TGI [43] | TGI [44] | TGI [45] | TGI [46] | TGI [47] | TGI [48] | TGI [49] | TGI [51] | TGI [52] | TGI [53] | TGI [54] | TGI [55] | TGI [56] | TGI [57]
25.4 µM: TGI [10]

— PubChem BioAssay (NCI)
